Laboratory results taken from PubChem BioAssay (NCI).
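In this assay, cells in 96-well plates receive the compound at five concentrations for 48 hours. Endpoints are linearly interpolated between the surrounding concentrations. Abbreviation: GI50, concentration required for 50% inhibition of growth. TGI marks complete inhibition of growth.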

How the values were obtained:
Assay in all cases: inhibition of tumour cell growth, NCI panel, 48 h
UO-31 renal = system: UO-31 renal
HL-60(TB) leukemia = system: HL-60(TB) leukemia
SK-MEL-2 melanoma = system: SK-MEL-2 melanoma
SNB-78 CNS = system: SNB-78 CNS
UACC-257 melanoma = system: UACC-257 melanoma
EKVX NSCLC = system: EKVX NSCLC
U251 CNS = system: U251 CNS
HOP-18 NSCLC = system: HOP-18 NSCLC
HOP-92 NSCLC = system: HOP-92 NSCLC
CAKI-1 renal = system: CAKI-1 renal
IGROV1 ovarian = system: IGROV1 ovarian
OVCAR-3 ovarian = system: OVCAR-3 ovarian
MALME-3M melanoma = system: MALME-3M melanoma
HT29 colon = system: HT29 colon
NCI-H460 lung = system: NCI-H460 lung
A549 NSCLC = system: A549 NSCLC
SK-MEL-28 melanoma = system: SK-MEL-28 melanoma
NCI-H522 lung = system: NCI-H522 lung
DLD-1 colon = system: DLD-1 colon
HCC-2998 colon = system: HCC-2998 colon
DMS 114 small cell lung = system: DMS 114 small cell lung
OVCAR-5 ovarian = system: OVCAR-5 ovarian
M14 melanoma = system: M14 melanoma
RPMI-8226 leukemia = system: RPMI-8226 leukemia
M19-MEL melanoma = system: M19-MEL melanoma
HOP-62 NSCLC = system: HOP-62 NSCLC
SK-MEL-5 melanoma = system: SK-MEL-5 melanoma
KM20L2 colon = system: KM20L2 colon
KM12 colon = system: KM12 colon
SR leukemia = system: SR leukemia
CCRF-CEM leukemia = system: CCRF-CEM leukemia
LOX IMVI melanoma = system: LOX IMVI melanoma
UACC-62 melanoma = system: UACC-62 melanoma
SNB-19 CNS = system: SNB-19 CNS
MOLT-4 leukemia = system: MOLT-4 leukemia
SN12C renal = system: SN12C renal
LXFL 529 NSCLC = system: LXFL 529 NSCLC
SF-539 CNS = system: SF-539 CNS
TK-10 renal = system: TK-10 renal
SF-268 CNS = system: SF-268 CNS
COLO 205 colon = system: COLO 205 colon
DMS 273 small cell lung = system: DMS 273 small cell lung
ACHN renal = system: ACHN renal
OVCAR-4 ovarian = system: OVCAR-4 ovarian
NCI-H23 lung = system: NCI-H23 lung
OVCAR-8 ovarian = system: OVCAR-8 ovarian
HCT-15 colon = system: HCT-15 colon
SF-295 CNS = system: SF-295 CNS
RXF 393 renal = system: RXF 393 renal
786-0 renal = system: 786-0 renal
SNB-75 CNS = system: SNB-75 CNS
SK-OV-3 ovarian = system: SK-OV-3 ovarian
NCI-H226 lung = system: NCI-H226 lung
HCT-116 colon = system: HCT-116 colon
K-562 leukemia = system: K-562 leukemia
SW-620 colon = system: SW-620 colon
A498 renal = system: A498 renal

## FC(F)(F)c1nnn[n-]1.[Au+].c1ccc([PH+](c2ccccc2)c2ccccc2)cc1
UO-31 renal
  GI50: 6.84 µM
  TGI: 16.7 µM
HL-60(TB) leukemia
  GI50: 161 nM
  TGI: 420 nM
SK-MEL-2 melanoma
  GI50: 3.09 µM
  TGI: 10.8 µM
SNB-78 CNS
  GI50: 6.66 µM
  TGI: > 62.7 µM
UACC-257 melanoma
  GI50: 1820 nM
  TGI: 7.43 µM
EKVX NSCLC
  GI50: 5.65 µM
  TGI: 10.4 µM
U251 CNS
  GI50: 3.04 µM
  TGI: 11.1 µM
HOP-18 NSCLC
  GI50: 8.67 µM
  TGI: 20.5 µM
HOP-92 NSCLC
  GI50: 2380 nM
  TGI: 4.59 µM
CAKI-1 renal
  GI50: 3.6 µM
  TGI: 14.2 µM
IGROV1 ovarian
  GI50: 2690 nM
  TGI: 13.2 µM
OVCAR-3 ovarian
  GI50: 2890 nM
  TGI: 7.49 µM
MALME-3M melanoma
  GI50: 1580 nM
  TGI: 3.35 µM
HT29 colon
  GI50: 4.25 µM
  TGI: 13.2 µM
NCI-H460 lung
  GI50: 16.6 µM
  TGI: 50.4 µM
A549 NSCLC
  GI50: 19.3 µM
  TGI: 62.3 µM
SK-MEL-28 melanoma
  GI50: 2490 nM
  TGI: 7.35 µM
NCI-H522 lung
  GI50: 1330 nM
  TGI: 2810 nM
DLD-1 colon
  GI50: 1950 nM
  TGI: 5.04 µM
HCC-2998 colon
  GI50: 10.3 µM
  TGI: 22.3 µM
DMS 114 small cell lung
  GI50: 1950 nM
  TGI: 15 µM
OVCAR-5 ovarian
  GI50: 16.1 µM
  TGI: 30 µM
M14 melanoma
  GI50: 1780 nM
  TGI: 4.37 µM
RPMI-8226 leukemia
  GI50: 1410 nM
  TGI: 4.63 µM
M19-MEL melanoma
  GI50: 2740 nM
  TGI: 15.7 µM
HOP-62 NSCLC
  GI50: 19.7 µM
  TGI: 34.2 µM
SK-MEL-5 melanoma
  GI50: 2000 nM
  TGI: 7.15 µM
KM20L2 colon
  GI50: 6.74 µM
  TGI: 16.6 µM
KM12 colon
  GI50: 13.2 µM
  TGI: 42.5 µM
SR leukemia
  GI50: 1300 nM
  TGI: 3.65 µM
CCRF-CEM leukemia
  GI50: 449 nM
  TGI: 2910 nM
LOX IMVI melanoma
  GI50: 2260 nM
  TGI: 7.64 µM
UACC-62 melanoma
  GI50: 2170 nM
  TGI: 10.7 µM
SNB-19 CNS
  GI50: 4.07 µM
  TGI: 13.6 µM
MOLT-4 leukemia
  GI50: 1520 nM
  TGI: 4.09 µM
SN12C renal
  GI50: 6.34 µM
  TGI: 16.4 µM
LXFL 529 NSCLC
  GI50: 1480 nM
  TGI: 2820 nM
SF-539 CNS
  GI50: 5.18 µM
  TGI: 19.4 µM
TK-10 renal
  GI50: 3.51 µM
  TGI: 9.27 µM
SF-268 CNS
  GI50: 4.2 µM
  TGI: 13.1 µM
COLO 205 colon
  GI50: 2620 nM
  TGI: 6.94 µM
DMS 273 small cell lung
  GI50: 5.62 µM
  TGI: 54.7 µM
ACHN renal
  GI50: 4.63 µM
  TGI: 9.84 µM
OVCAR-4 ovarian
  GI50: 2090 nM
  TGI: 6.67 µM
NCI-H23 lung
  GI50: 2790 nM
  TGI: 9.11 µM
OVCAR-8 ovarian
  GI50: 2770 nM
  TGI: 9.18 µM
HCT-15 colon
  GI50: 2190 nM
  TGI: 6.92 µM
SF-295 CNS
  GI50: 11 µM
  TGI: 41.3 µM
RXF 393 renal
  GI50: 1520 nM
  TGI: 3.11 µM
786-0 renal
  GI50: 1840 nM
  TGI: 3.55 µM
SNB-75 CNS
  GI50: 8.64 µM
  TGI: 22.1 µM
SK-OV-3 ovarian
  GI50: 15.6 µM
  TGI: 29 µM
NCI-H226 lung
  GI50: 10.9 µM
  TGI: 26.3 µM
HCT-116 colon
  GI50: 12.4 µM
  TGI: 24.9 µM

## COc1ccc(C2=C3c4cc(OC)c(OC)cc4CCN3C(=S)SS2)cc1OC
UO-31 renal
  TGI: > 100 µM
HL-60(TB) leukemia
  TGI: > 100000 nM
SK-MEL-2 melanoma
  TGI: > 100 µM
SNB-78 CNS
  TGI: > 100 µM
K-562 leukemia
  TGI: > 100 µM
UACC-257 melanoma
  TGI: > 100 µM
EKVX NSCLC
  TGI: > 100 µM
U251 CNS
  TGI: > 100 µM
HOP-18 NSCLC
  TGI: > 100 µM
SW-620 colon
  TGI: > 100 µM
HOP-92 NSCLC
  TGI: > 100 µM
CAKI-1 renal
  TGI: > 100 µM
IGROV1 ovarian
  TGI: > 100 µM
OVCAR-3 ovarian
  TGI: > 100 µM
MALME-3M melanoma
  TGI: 97.6 µM
HT29 colon
  TGI: > 100 µM
NCI-H460 lung
  TGI: > 100 µM
A549 NSCLC
  TGI: > 100 µM
SK-MEL-28 melanoma
  TGI: > 100 µM
NCI-H522 lung
  TGI: > 100000 nM
DLD-1 colon
  TGI: > 100 µM
HCC-2998 colon
  TGI: > 100 µM
DMS 114 small cell lung
  TGI: > 100 µM
OVCAR-5 ovarian
  TGI: > 100 µM
M14 melanoma
  TGI: > 100 µM
RPMI-8226 leukemia
  TGI: > 100 µM
M19-MEL melanoma
  TGI: > 100 µM
HOP-62 NSCLC
  TGI: > 100 µM
SK-MEL-5 melanoma
  TGI: > 100 µM
KM20L2 colon
  TGI: > 100 µM
KM12 colon
  TGI: > 100 µM
CCRF-CEM leukemia
  TGI: > 100000 nM
A498 renal
  TGI: > 100 µM
LOX IMVI melanoma
  TGI: > 100 µM
UACC-62 melanoma
  TGI: > 100 µM
SNB-19 CNS
  TGI: > 100 µM
MOLT-4 leukemia
  TGI: > 100 µM
SN12C renal
  TGI: > 100 µM
LXFL 529 NSCLC
  TGI: > 100000 nM
SF-539 CNS
  TGI: > 100 µM
TK-10 renal
  TGI: > 100 µM
SF-268 CNS
  TGI: > 100 µM
COLO 205 colon
  TGI: > 100 µM
DMS 273 small cell lung
  TGI: > 100 µM
ACHN renal
  TGI: > 100 µM
OVCAR-4 ovarian
  TGI: > 100 µM
NCI-H23 lung
  TGI: > 100 µM
OVCAR-8 ovarian
  TGI: > 100 µM
HCT-15 colon
  TGI: > 100 µM
SF-295 CNS
  TGI: > 100 µM
RXF 393 renal
  TGI: > 100 µM
786-0 renal
  TGI: > 100 µM
SNB-75 CNS
  TGI: > 100 µM
SK-OV-3 ovarian
  TGI: > 100 µM
NCI-H226 lung
  TGI: > 100 µM
HCT-116 colon
  TGI: > 100 µM
